{"source": "patent US9844572B2", "about": "“Promotion of neuronal integration in neural stem cell grafts” (Life & Brain GmbH, priority 2009, dated 2017)", "key": {"[1]": {"system": "lt-hESNSC", "assay": "BrdU cell proliferation assay", "format": "cell-based, human", "conditions": "BIBF1120 2 μg/ml for 20 h; BrdU 2.5 h", "protocol": "(§1) FIG. 9 The effect of BIBF1120 on lt-hESNSC proliferation and differentiation. The proliferative effect was measured in a BrdU proliferation assay of lt-hESNSC, either with or without BIBF1120 (a). Bars represent the percentage of BrdU positive cells, cultured for 20 hours in NSC-medium or in NSC-medium with BIBF1120 (2 μg/ml) and treated for 2.5 h with BrdU. The neurogenic effect of BIBF1120 on lt-hESNSC was studied (b). Bars represent the percentage of βIII tubulin-positive neurons in lt-hESNSC cultured for 10 days in neuronal generation medium or in neuronal generation medium with BIBF1120 (2 μg/ml).\nFor BrdU staining (FIG. 6A) 0.5% Triton X-100 in PBS was used for permeabilizing the cells. After washing, cells were incubated with 2 M HCl for 10 minutes, washed in PBS, equilibrated using 0.1 M borate buffer, washed again in PBS, followed by an incubation with the primary antibody diluted in blocking solution at room temperature over night. Staining with the secondary antibody was performed as described.\n5′-bromo-T-deoxyuridine (BrdU) is a thymidine analog that incorporates into dividing cells during DNA synthesis. To determine whether BIBF1120 has an influence on the proliferation rate of lt-hESNSC, cells were cultured under neural proliferation medium with or without BIBF1120 (2 μg/ml) for 20 h. BrdU was added to the culture medium for 2.5 h. […]"}, "[2]": {"system": "lt-hESNSC", "assay": "Neurogenesis assay (differentiation in neuronal generation medium)", "format": "cell-based, human", "conditions": "10 days in neuronal generation medium with BIBF1120 (2 μg/ml)", "protocol": "as §1\nDifferentiation was studied by a neurogenesis assay. In this assay lt-hESNSC were cultured for 10 days in neuronal generation medium or in neuronal generation medium with BIBF1120 (2 μg/ml), fixed and stained for […]."}, "[3]": {"system": "human Neurons", "assay": "Dunn chamber migration assay (chemotaxis of immature neurons)", "format": "cell-based", "conditions": "BIBF1120 (2 μg), 6 h recording; for chemotactic response of human neurons towards FGF2 gradient in presence of inhibitor: FGF2 200 ng/ml in outer well; for chemotactic response of human neurons towards VEGF gradient in presence of inhibitor: VEGF 200 ng/ml in outer well", "protocol": "FIG. 7A Dunn chamber migration assay. Schematic representation of a direct-viewing Dunn chemotaxis chamber showing the position of the inner well, the bridge, the outer well and the overlying coverslip (a) (Zicha et al., 1991 1998, Zhang et al., 2003). Adopted from Hawksley. Calculation of the forward migration index (FMI) during a 6 h recording period. FMI values can be either positive or negative, depending on the direction in which the cell is migrating (b).\nFIG. 7B Directionality analysis of cell movement using scatter plots of cell displacement (c-i). The diagrams orientate such that the position of the outer well of the chamber are vertical (y direction). Each point represents the final position of a cell at the end of the recording period of 6-h; the starting point of migration is fixed at the intersection of the two axes. As control migration of human neurons was monitored in medium only (c). For assessing chemokinesis, equal amounts of FGF2 (d) or VEGF (e) were added to both the outer and the inner wells of the chamber. Chemotaxis was tested by placing FGF2 (f) or VEGF (g) in the outer well only. Migration of human neurons treated with BFBF1120 was monitored towards a FGF2 (h) and VEGF (i) gradient.\nChemotaxis of immature neurons was directly viewed and recorded in stable concentration gradients of FGF2 (200 ng/ml) or VEGF (200 ng/ml), respectively, with or without the addition of BIBF1120 ([…]) using a Dunn chemotaxis chamber (Allen et al., 1998 1998, Zhang et al., 2003). This device is made from a Helber bacteria counting chamber by grinding a circular well in the central platform to leave a 1 mm-wide annular bridge between the inner and the outer well. Chemoattractants added to the outer well of the chamber will diffuse across the bridge to the inner well and form a linear steady gradient within ˜30 min after loading the chamber (Zicha et al., 1991; Webb et al., 1996). To study chemotaxis, the outer well of the Dunn chamber can be filled with medium containing a chemoattractant, whereas the concentric inner well is filled with medium only. Coverslips carrying the cultured cells are inverted and placed onto the chamber. Cell locomotion is recorded through the annular bridge between the concentric inner and outer well. For assessing chemokinesis, the outer and inner wells are filled with equal concentrations of the chemoattractant. A period of 6 h was chosen to assess cell migration.\nTo determine the efficiency of forward migration during the 6 h recording period, the FMI was calculated as the ratio of forward progress to the total path length (Foxman et al., 1999; Zhang et al.)."}, "[4]": {"system": "lt-hESNSC mixed with immature neurons on hippocampal rat slice cultures", "assay": "Transplantation onto rat hippocampal slice cultures (migration of human neurons from mixed grafts)", "format": "cell-based", "conditions": "2 μg/ml BIBF1120, day 7", "protocol": "Using a vibroslicer, 400 μm horizontal sections were generated from the hippocampus of 9-10 day-old Wistar rats. The slices included the dentate gyrus and the entorhinal and temporal cortex (Scheffler et al., 2003; Opitz et al., 2007). They were transferred onto a polyester membrane and cultivated at 35° C., 5% CO2 and saturated air humidity in an initial culture medium containing 25% normal horse serum, which was gradually replaced after 3-5 days by chemically defined, serum-free culture medium based on DMEM/F12, N2 supplement and B27 supplement. Medium was changed every other day and 5-7 days after explantation a cell suspension of 50 000 cells in a 1 μl volume was spotted onto the entorhinal cortex of the slice using an injection device.\nFor immunohistochemical analysis of slice cultures (FIG. 4), cultures were fixed in 4% paraformaldehyde for 4 hours and subsequently washed several times with PBS. Slices were permeabilized/blocked with 0.1% Triton X-100+10% FCS for 6 hours at 25° C. Incubation with primary antibody was for 16 hours at room temperature, followed by washing steps with PBS for 5 hours. Incubation with the secondary antibodies was for 2 hours at room temperature.\nTo further investigate whether endostatin can also interfere with the chemoattractive effect of neural stem/progenitor cells on immature neurons in a context closer to an in vivo situation, hippocampal rat slice culture experiments were performed. HES-NSC70+N30 were pre-incubated for 30 minutes in 30 μl Cytocon™-Buffer II with either 2 μl stock solution endostatin (n=9) or with 2 μl of the solvent of endostatin (citric-phosphate buffer) as control (n=9), and then deposited on the entorhinal cortex of hippocampal slice cultures. Cultures of pure human neurons were transplanted as positive control (n=9). The slices were further cultured for 18 days after deposition of the cells. 1 μl/ml endostatin stock solution was continuously applied every day to the slice media.\nTo further investigate whether BIBF1120 can also interfere with the chemoattractive effect of neural stem/progenitor cells on immature neurons, hippocampal rat slice culture experiments were performed. Lt-hESNSC mixed with purified DCX-EGFP positive neurons (30.0000 lt-hESNSC mixed with 100.000 purified neurons per μl) were pre-incubated for 30 min. in Cytocon™-Buffer II with or without 2 μg/ml BIBF1120, respectively, and then deposited on the entorhinal cortex (EC) of hippocampal slice cultures. The slices were further cultured for 7 days after deposition of the cells. 2 μg/ml BIBF1120 was continuously applied every day to the slice media."}, "[5]": {"system": "mitogen-activated protein kinase (MAPK) and Akt signalling pathways", "conditions": "after 1-hour treatment; cell culture; cited from earlier work"}}}
{"smiles": "COC(=O)c1ccc2c(c1)NC(=O)/C2=C(\\Nc1ccc(N(C)C(=O)CN2CCN(C)CC2)cc1)c1ccccc1", "note": "[BIBF1120, 3-Z-[1-(4-(N-((4-methyl-piperazin-1-yl)-methylcarbonyl)-N-methyl-amino)-anilino)-1-phenyl-methylene]-6-methoxycarbonyl-2-indolinone]", "values": [{"measurement": "proliferation rate (BrdU positive cells) vs untreated control", "setting": "[1]", "value": "no significant difference"}, {"measurement": "differentiation (βIII tubulin-positive neurons)", "setting": "[2]", "value": "not significantly influenced"}, {"measurement": "chemotactic response of human neurons towards FGF2 gradient in presence of inhibitor", "setting": "[3]", "value": "lost their chemotactic response"}, {"measurement": "chemotactic response of human neurons towards FGF2 gradient in presence of inhibitor", "setting": "[3]; listed as BFBF1120", "value": "loose this chemotactic response"}, {"measurement": "chemotactic response of human neurons towards VEGF gradient in presence of inhibitor", "setting": "[3]", "value": "lost their chemotactic response"}, {"measurement": "chemotactic response of human neurons towards VEGF gradient in presence of inhibitor", "setting": "[3]; listed as BFBF1120", "value": "loose this chemotactic response"}, {"measurement": "migration along the z-axis", "setting": "[4]", "value": "easily migrated throughout the entire slice tissue"}, {"measurement": "total number of human neurons within 10 μm thick optical plane, bottom of the slice", "setting": "[4]", "value": "14±7.8"}, {"measurement": "total number of human neurons within 10 μm thick optical plane, middle of the slice", "setting": "[4]", "value": "14.6±6.1"}, {"measurement": "number of neurons migrated beyond a 250 μm perimeter around the deposition site, increase vs control", "setting": "[4]; xy-axis", "value": "two-fold increase"}, {"measurement": "migration horizontally over the slice compared to control population", "setting": "[4]; lt-hESNSC mixed with purified neurons", "value": "enhanced migration and integration capacity"}, {"measurement": "duration of sustained pathway inhibition", "setting": "[5]", "value": "up to 32 hours"}]}
